Reference: paper PMC6858373 (Scientific Reports, 2019)
Structures can show the parent of a compound that is named as a salt. Where two headings read alike, the source gives them in different places.

Assays:
[1] = target: T1, FGF14:Nav1.6 C-tail complex (Homo sapiens, UniProt Q92915+Q9UQD0); experiment: Split-luciferase complementation assay (LCA) in Clone V double stable HEK293 cells; assay type: cell-based; conditions: CC_NCI screening; for Split Luciferase Assay % Lum Set 1 / Split Luciferase Assay %Lum Set 2: LCA luminescence, normalized to on-plate 0.3% DMSO controls (n=16 per plate); for Split Luciferase Assay % Lum Set 1 / Split Luciferase Assay Z-score Set 1: biological replicate Set 1; for Split Luciferase Assay %Lum Set 2 / Split Luciferase Assay Z-score Set 2: biological replicate Set 2; for Split Luciferase Assay Z-score Set 1 / Split Luciferase Assay Z-score Set 2: LCA, normalized to on-plate 0.3% DMSO controls; for Split Luciferase Assay %Lum Avg: average of Set 1 and Set 2, normalized to 0.3% DMSO controls
T1 construct: polymerase chain reaction (PCR) amplification of the FGF14 open reading frame (nt 1–855); C-terminal fragment of Nav1.6 (amino acids 1763–1976) fused with CD4ΔC-tail (amino acids 1–395); expressed in transfected cells

[2] = target: full-length P. pyralis luciferase (Photinus pyralis, UniProt P08659, K549A/L550V/N119G/N50D/S548I); assay type: cell-based; conditions: CC_NCI screening, normalized to on-plate 0.3% DMSO controls; for Luciferase Assay % Lum: full-length luciferase counter-screen luminescence; for Luciferase Assay Z-score: full-length luciferase counter-screen
Clone V cells [3] = conditions: human
Clone V cells [4] = experiment: CellTiter Blue (CTB) cell viability counter-screen; conditions: CC_NCI screening; CTB cell viability fluorescence; normalized to on-plate 0.3% DMSO controls

Sequence of full-length P. pyralis luciferase (P08659 whole entry N50D/N119G/S548I/K549A/L550V, looked up): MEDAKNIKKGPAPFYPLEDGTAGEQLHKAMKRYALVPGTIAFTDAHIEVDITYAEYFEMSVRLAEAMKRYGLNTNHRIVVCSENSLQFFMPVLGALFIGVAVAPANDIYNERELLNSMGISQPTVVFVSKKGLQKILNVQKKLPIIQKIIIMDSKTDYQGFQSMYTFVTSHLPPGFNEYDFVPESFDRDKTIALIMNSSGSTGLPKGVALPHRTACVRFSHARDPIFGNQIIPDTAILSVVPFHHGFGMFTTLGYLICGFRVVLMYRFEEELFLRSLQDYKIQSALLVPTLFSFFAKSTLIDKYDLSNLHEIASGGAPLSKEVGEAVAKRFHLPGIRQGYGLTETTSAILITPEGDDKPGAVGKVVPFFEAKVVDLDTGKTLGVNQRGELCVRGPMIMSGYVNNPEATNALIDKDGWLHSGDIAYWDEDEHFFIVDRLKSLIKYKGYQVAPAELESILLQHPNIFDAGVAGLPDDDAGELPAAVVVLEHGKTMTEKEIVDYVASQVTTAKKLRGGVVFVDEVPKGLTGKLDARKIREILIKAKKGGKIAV
T1 sequence (Q92915 1-252 isoform Q92915-2): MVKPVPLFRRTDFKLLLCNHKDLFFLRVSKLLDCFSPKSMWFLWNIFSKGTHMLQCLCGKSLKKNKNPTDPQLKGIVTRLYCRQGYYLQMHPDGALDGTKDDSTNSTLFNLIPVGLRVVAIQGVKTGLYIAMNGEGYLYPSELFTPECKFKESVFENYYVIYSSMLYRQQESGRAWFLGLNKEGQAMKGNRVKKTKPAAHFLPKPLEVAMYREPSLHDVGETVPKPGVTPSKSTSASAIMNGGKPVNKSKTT
T1 sequence (Q9UQD0 1763-1976 limits assumed): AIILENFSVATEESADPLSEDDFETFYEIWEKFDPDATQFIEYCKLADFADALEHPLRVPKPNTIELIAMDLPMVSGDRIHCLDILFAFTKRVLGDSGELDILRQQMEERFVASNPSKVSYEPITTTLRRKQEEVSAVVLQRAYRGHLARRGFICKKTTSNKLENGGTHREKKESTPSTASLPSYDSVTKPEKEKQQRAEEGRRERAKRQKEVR

Structure (SMILES) | Split Luciferase Assay % Lum Set 1 [1] [%] | Split Luciferase Assay %Lum Set 2 [1] [%] | Split Luciferase Assay Z-score Set 1 [1] | Split Luciferase Assay Z-score Set 2 [1] | Split Luciferase Assay %Lum Avg [1] [%] | Luciferase Assay % Lum [2] [%] | Luciferase Assay Z-score [2] | Toxicity Assay Z-score (Clone V cells [3]; 16 h, 30 µM) | Toxicity Assay % Fluor (Clone V cells [4]) [%] | Toxicity Assay Z-score (Clone V cells [3])
O=C(/C=C/c1cccc(S(=O)(=O)Nc2ccccc2)c1)NO [PXD101] | 105.78 | 106.11 | 0.47 | 0.50 | 105.94 | 87.87 | -1.55 | -0.54 | 96.16 | 
Cc1ccc(C(=O)Nc2ccc(CN3CCN(C)CC3)c(C(F)(F)F)c2)cc1C#Cc1cnc2cccnn12 [Ponatinib] | 53.59 | 58.26 | -3.75 | -3.40 | 55.93 | 84.93 | -1.93 |  | 80.95 | -2.66
Oc1ccc(-c2nc(-c3ccncc3)c(-c3ccc(F)cc3)[nH]2)cc1 [SB 202190] | 101.43 | 105.07 | 0.12 | 0.41 | 103.25 | 79.13 | -2.67 | -0.55 | 96.10 | 
O=C1CCC(N2C(=O)c3ccccc3C2=O)C(=O)N1 (stereo not drawn) [Thalidomide] | 128.60 | 108.19 | 2.31 | 0.67 | 118.40 | 100.85 | 0.11 | -1.74 | 87.53 | 
CC[C@@]1(O)C(=O)OCc2c1cc1n(c2=O)Cc2cc3c(CN(C)C)c(O)ccc3nc2-1 [Topotecan hydrochloride] | 57.94 | 58.26 | -3.40 | -3.40 | 58.10 | 88.71 | -1.45 | -0.96 | 93.13 | 
CC1=C(/C=C/C(C)=C/C=C/C(C)=C/C(=O)O)C(C)(C)CCC1 [Tretinoin] | 117.73 | 106.11 | 1.43 | 0.50 | 111.92 | 80.43 | -2.51 | -1.78 | 87.25 | 
Clc1ccc(Nc2nnc(Cc3ccncc3)c3ccccc23)cc1 [VATALANIB] | 64.47 | 69.70 | -2.87 | -2.47 | 67.08 | 78.45 | -2.76 | -1.79 | 87.19 | 
CC[C@]1(O)C[C@H]2CN(CCc3c([nH]c4ccccc34)[C@@](C(=O)OC)(c3cc4c(cc3OC)N(C=O)[C@H]3[C@@](O)(C(=O)OC)[C@H](OC(C)=O)[C@]5(CC)C=CCN6CC[C@]43[C@@H]65)C2)C1 [Vincristine sulfate] | 200.35 | 196.62 | 8.11 | 7.86 | 198.49 | 109.71 | 1.24 | -0.20 | 98.56 | 
CCC1=C[C@@H]2CN(C1)Cc1c([nH]c3ccccc13)[C@@](C(=O)OC)(c1cc3c(cc1OC)N(C)[C@H]1[C@@](O)(C(=O)OC)[C@H](OC(C)=O)[C@]4(CC)C=CCN5CC[C@]31[C@@H]54)C2 [Vinorelbine tartrate] | 231.88 | 185.18 | 10.66 | 6.93 | 208.53 | 110.51 | 1.35 | -1.62 | 88.42 | 
